In general, IC50 refers to the concentration needed to halve the response being measured. Read a low IC50 as greater potency in that assay.

The target in the test is PIK3CG (human) (UniProt P48736). The test can be described thus: Inhibition of PIK3CG Kinase Activity.
PIK3CG (human), sequence (P48736 whole entry, looked up): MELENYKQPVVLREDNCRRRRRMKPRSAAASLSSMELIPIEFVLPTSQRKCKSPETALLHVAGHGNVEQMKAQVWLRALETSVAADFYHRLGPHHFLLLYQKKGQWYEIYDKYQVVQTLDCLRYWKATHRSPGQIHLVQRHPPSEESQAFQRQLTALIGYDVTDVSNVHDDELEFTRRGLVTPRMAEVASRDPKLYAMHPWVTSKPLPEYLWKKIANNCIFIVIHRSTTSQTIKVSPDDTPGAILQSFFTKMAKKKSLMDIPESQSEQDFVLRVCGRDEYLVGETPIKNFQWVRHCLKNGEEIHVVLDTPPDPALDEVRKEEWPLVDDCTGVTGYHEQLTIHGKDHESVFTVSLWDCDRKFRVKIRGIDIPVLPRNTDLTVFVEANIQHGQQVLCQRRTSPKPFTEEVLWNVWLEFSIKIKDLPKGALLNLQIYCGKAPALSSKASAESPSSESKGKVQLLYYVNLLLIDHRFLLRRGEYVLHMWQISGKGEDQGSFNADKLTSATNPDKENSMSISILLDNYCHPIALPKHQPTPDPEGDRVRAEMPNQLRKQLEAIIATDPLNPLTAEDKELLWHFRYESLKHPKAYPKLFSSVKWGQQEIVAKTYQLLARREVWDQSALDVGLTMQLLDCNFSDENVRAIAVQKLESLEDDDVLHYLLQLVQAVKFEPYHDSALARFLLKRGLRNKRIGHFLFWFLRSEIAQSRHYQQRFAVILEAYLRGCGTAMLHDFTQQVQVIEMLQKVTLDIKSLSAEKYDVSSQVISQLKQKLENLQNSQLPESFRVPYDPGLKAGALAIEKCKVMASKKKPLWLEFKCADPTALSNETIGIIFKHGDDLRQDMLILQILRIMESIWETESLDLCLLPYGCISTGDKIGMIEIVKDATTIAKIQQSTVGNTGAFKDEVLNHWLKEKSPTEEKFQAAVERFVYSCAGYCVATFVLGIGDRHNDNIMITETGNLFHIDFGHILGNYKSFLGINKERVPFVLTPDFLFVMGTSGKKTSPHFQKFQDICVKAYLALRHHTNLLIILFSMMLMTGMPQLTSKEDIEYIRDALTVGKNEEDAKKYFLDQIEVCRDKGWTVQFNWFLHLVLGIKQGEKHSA

Regarding `COc1ccc2oc(C(=O)Nc3nnn[nH]3)c(OCC3CCCCC3)c2c1`, the 50% inhibitory concentration (IC50) turned out to be 0.84 µM. The result for `COc1ccc2oc(C(=O)Nc3nnn[nH]3)c(OC(C)C3CC3)c2c1` (centres undefined) reads 1.46 µM; that for `COc1ccc2oc(C(=O)Nc3nnn[nH]3)c(OC3CCCCCC3)c2c1`, 0.097 µM.

`CCC(Oc1c(C(=O)Nc2nnn[nH]2)oc2ccc(OC)cc12)C1CCCCC1` (centres undefined) returned an IC50 of 0.305 µM. Then `COc1ccc2oc(C(=O)Nc3nnn[nH]3)c(OCC3CC=CCC3C)c2c1` (centres undefined), with 0.185 µM.

As for `COc1ccc2oc(C(=O)Nc3nnn[nH]3)c(OCC3C4CCC(C4)C3C)c2c1` (centres undefined), the IC50 was determined as 0.067 µM. Compound `COc1ccc2oc(C(=O)Nc3nnn[nH]3)c(OC3CC(C)CC(C)C3)c2c1` (centres undefined) gave an IC50 of 0.041 µM. The result for `COc1ccc2oc(C(=O)Nc3nnn[nH]3)c(OC3CCCCC3)c2c1` reads 0.255 µM; that for `COc1ccc2oc(C(=O)Nc3nnn[nH]3)c(OCC3CC3)c2c1`, 0.69 µM. `COc1ccc2oc(C(=O)Nc3nnn[nH]3)c(OC3CC(C)CC3C)c2c1` (centres undefined) gave an IC50 of 0.29 µM. The result for `COc1ccc2oc(C(=O)Nc3nnn[nH]3)c(OC3CCC(C)C(C)C3)c2c1` (centres undefined) reads 0.076 µM; that for `CCC1(COc2c(C(=O)Nc3nnn[nH]3)oc3ccc(OC)cc23)COC1`, 1.46 µM; that for `COc1ccc2oc(C(=O)Nc3nnn[nH]3)c(OC3CCC4CCCCC4C3)c2c1` (centres undefined), 0.325 µM.

`CC1(OCOc2c(C(=O)Nc3nnn[nH]3)oc3ccc(Cl)cc23)CC1` showed an IC50 of 1.46 µM. Then `COc1ccc2oc(C(=O)Nc3nnn[nH]3)c(OC3CCCC3)c2c1`, with 1.05 µM.

Compound `COc1ccc2oc(C(=O)Nc3nnn[nH]3)c(OCC3(C)CC3)c2c1` returned an IC50 of 0.22 µM. The result for `COc1ccc2oc(C(=O)Nc3nnn[nH]3)c(OCC3CCCC3)c2c1` reads 0.16 µM. The result for `COc1ccc2oc(C(=O)Nc3nnn[nH]3)c(OC3CC4CCC3C4)c2c1` (centres undefined) reads 0.335 µM; that for `COc1ccc2oc(C(=O)Nc3nnn[nH]3)c(OCC3CCCCCC3)c2c1`, 0.108 µM. Then `COc1ccc2oc(C(=O)Nc3nnn[nH]3)c(OC(C)C3CCCC3)c2c1` (centres undefined), with 0.15 µM; and `COc1ccc2oc(C(=O)Nc3nnn[nH]3)c(OC3CCC3)c2c1`, with 0.4 µM; and `COc1ccc2oc(C(=O)Nc3nnn[nH]3)c(OCC3CC=CCC3)c2c1` (centres undefined), with 0.315 µM. In turn, `COc1ccc2oc(C(=O)Nc3nnn[nH]3)c(OC3CCC(C4CCCCC4)CC3)c2c1` (centres undefined) yielded an IC50 of 0.38 µM. The IC50 values of the last two compounds are within 1.5-fold of each other. `COc1ccc2oc(C(=O)Nc3nnn[nH]3)c(OCC3(C)COC3)c2c1` had an IC50 of 3.64 µM. This IC50 is about 9.6-fold higher than that of the compound before.

In the case of `COc1ccc2oc(C(=O)Nc3nnn[nH]3)c(OC3CCCCCCC3)c2c1`, the IC50 is 0.185 µM. Against the preceding compound, the IC50 is about 20-fold lower.

Regarding `COc1ccc2oc(C(=O)Nc3nnn[nH]3)c(OC3CC(C)CCC3C)c2c1` (centres undefined), the IC50 came out at 0.37 µM. Then `O=C(Nc1nnn[nH]1)c1oc2ccc(Cl)cc2c1OC1CCCC1`, with 3.31 µM. The result for `COc1ccc2oc(C(=O)Nc3nnn[nH]3)c(OC3CCOCC3)c2c1` reads 1.18 µM; that for `COc1ccc2oc(C(=O)Nc3nnn[nH]3)c(OCC3CCC3)c2c1`, 0.175 µM.

The values are drawn from the Kinase Knowledgebase extract (Sharma et al. 2016).
